Consider six molecules from US12491452B2, “Extraction method and composition obtained therefrom” (NATURALIA INGREDIENTS S.R.L., priority 2018, dated 2025).

Where two headings read alike, the source gives them in different places. Bounds are passed on as bounds.

For data set [1] the following is noted: cited from earlier work.
Data set [2] can be described thus: Stability of CBDA and CBD in inclusion complexes of Eletta Campana CS inflorescence and HP-β-CD in water, HPLC-UV. The data set is classed as physicochemical. Conditions: for cannabinoid concentration: HP-β-CD aqueous extract. As for the experimental part: The official method reported in the German Pharmacopoeia of Cannabis Flos (https://www.MonographCannabisFlos.pdf) comprises three extraction and filtering cycles of 500 mg of inflorescence with 20, 12.5 and 12.5 mL of ethanol 96% respectively. The ethanol liquid phase was brought to a volume of 50 mL in a volumetric flask with clean 96% ethanol. Said extract was filtered on a regenerated cellulose filter with pore diameter 0.45 μm. A 1 mL portion was diluted with 9 mL of 96% ethanol for chromatographic analysis. For each cannabinoid a calibration curve was constructed for the quantification thereof within the extracts and in the aqueous formulations of the inclusion complexes with the inflorescence. The calibration curve was constructed with certified standards (Cerilliant Cannabinoid Reference Standards, Cerilliant Corporation, Texas, USA) in a concentration range of 0.25-1.00 μg/mL. The titrations were performed following the method published by Citti et al. [Citti et al., Journal of Pharmaceutical and Biomedical Analysis 2016, 128, 201-209] with the use of high-performance liquid chromatography coupled with a UV detector (HPLC-UV).
After filtering, both the solutions were then transferred to an amber-colored closed container. One container was kept at ambient temperature (25° C.) in the dark and the other in the refrigerator at 8° C. The concentration of the cannabinoids, in the particular example of CBDA and CBD, was measured at different times to verify the stability thereof, analyzing a portion by HPLC-UV. […] The percentage CBDA concentration difference with reference to time 0 is indicated in brackets.

The conditions of data set [3]: cited from earlier work. The source holds these as a separate data set.

For `C=C(C)[C@@H]1CCC(C)=C[C@H]1c1c(O)cc(CCCCC)c(C(=O)O)c1O` [CBDA, 2,4-Dihydroxy-3-[(1R,6R)-3-methyl-6-(1-methylethenyl)-2-cyclohexen-1-yl]-6-pentylbenzoic acid], the “time beyond which stability in water is not guaranteed” value in data set [1] (infusion without CD, both at 25° C. and at 4° C.) is listed as at most 14 days. The “stability of the formulation (in words)” value in data set [2] was “loss (albeit very slow”. In addition, the “percentage CBDA concentration difference with reference to time 0” value in data set [2] (8° C., 14 days) is given as “+1.8%”; in data set [2] (8° C., 45 days), “+1.4%”; in data set [2] (8° C., 60 days), “+0.6%”; in data set [2] (8° C., 100 days), “+1.4%”; in data set [2] (25° C., 14 days), −9.9%; in data set [2] (25° C., 45 days), −30.7%. For the same molecule, the “percentage CBDA concentration difference with reference to time 0” value in data set [2] (25° C., 60 days) is listed as −47.6%; in data set [2] (25° C., 100 days) it was −50.1%. Further, the cannabinoid concentration in data set [2] (8° C., 0 days) worked out at 6.81 µg/mL; in data set [2] (8° C., 14 days), 6.94 µg/mL; in data set [2] (8° C., 45 days), 6.91 µg/mL; in data set [2] (8° C., 60 days) it was 6.86 µg/mL; in data set [2] (8° C., 100 days), 6.91 µg/mL; in data set [2] (25° C. in the dark, 0 days), 6.45 µg/mL. For the same molecule, the cannabinoid concentration in data set [2] (25° C. in the dark, 14 days) was found to be 5.81 µg/mL; in data set [2] (25° C. in the dark, 45 days) it was 4.47 µg/mL; in data set [2] (25° C. in the dark, 60 days) it was 3.38 µg/mL; in data set [2] (25° C. in the dark, 100 days), 3.21 µg/mL.

For the molecule Randomly methylated β-Cyclodextrin, the “Solubility in pure water (mg/ml) at approx. 25° C.” value (from here on “Solubility in pure water (mg/ml)”) in data set [3] is over 500 mg/mL.

Sodium salt of β-CD sulfobutyl ether: in data set [3], the “Solubility in pure water (mg/ml)” value was over 500 mg/mL.

For the molecule 2-hydroxypropyl-β-cyclodextrin, in data set [3], the “Solubility in pure water (mg/ml)” value was over 600 mg/mL.

Take 2-Hydroxypropyl-γ-cyclodextrin: the “Solubility in pure water (mg/ml)” value in data set [3] was over 500 mg/mL.

`C=C(C)[C@@H]1CCC(C)=C[C@H]1c1c(O)cc(CCCCC)cc1O` [CBD, 2-[(1R,6R)-3-methyl-6-(prop-1-en-2-yl)cyclohex-2-enyl]-5-pentylbenzene-1,3-diol, reference compound]: the “drop of concentration in water” value in data set [1] (infusion without CD, 25° C., period of 7 days) is on record as 60%; in data set [1] (tisane without CD kept at 4° C., 7 days) it was 50%. The cannabinoid concentration in data set [2] (8° C., 0 days) was found to be 0.16 µg/mL; in data set [2] (8° C., 14 days), 0.12 µg/mL; in data set [2] (8° C., 45 days), 0.17 µg/mL; in data set [2] (8° C., 60 days) it was 0.14 µg/mL; in data set [2] (8° C., 100 days), 0.17 µg/mL; in data set [2] (25° C. in the dark, 0 days) it was 0.14 µg/mL. In addition, the cannabinoid concentration in data set [2] (25° C. in the dark, 14 days) was 0.56 µg/mL; in data set [2] (25° C. in the dark, 45 days), 0.78 µg/mL; in data set [2] (25° C. in the dark, 60 days), 1.10 µg/mL; in data set [2] (25° C. in the dark, 100 days), 2.93 µg/mL. The “stability of the formulation (in words)” value in data set [2] (formulation kept at 8° C., 100 days) is “remain surprisingly stable”.
